Measured values from patent publication US7060444B1, “Zone 3 necrosis associated markers and method of use thereof” (CuraGen Corporation, priority 2002, dated 2006).
Read-outs that look alike come from different tables or passages of the source.

Columns and labels:
[1] = system: Rat primary hepatocytes
[2] = system: liver; conditions: once converted to reactive metabolites; cited from earlier work
[3] = system: rat livers
Text: (§1) Each compound was delivered orally on a daily basis at a high dose (tox dose) and a 1/10 low dose (mode dose) for up to 14 days. Five male rats/dose/time were randomly assigned to sacrifice on days 1, 3, 7, and 14.
(§2) In order to construct in vivo models, the pathology of each sample had to be determined. Pathology was assigned to each liver sample by the pathologists at Bayer's Stillwell, Kans. facility. Criteria for inclusion of a compound into a particular mode included the following: • i.

[4] = system: liver; assay: In vivo pathology annotation: Hypertrophy; design: species or system rat; conditions: in vivo compound annotation
Text: Hypertrophy: Increase in cell size and liver weight. • iv. […] Steatosis: Increase in lipid accumulation or “vacuolar degeneration.” • vii. […] Two approaches were used.

[5] = system: rat livers; assay: Induction of Zone 3 Necrosis in vivo, liver pathology annotation; conditions: for Zone 3 Necrosis in vivo: Pathology Present: sampled 1, 3, 7, 14 d
Text: as §1, §2

[6] = system: liver; conditions: rats, through a sequence of events that begin with necrosis; cited from earlier work
[7] = rat primary hepatocytes, 50 microM
[8] = rat primary hepatocytes, 1000 microM
[9] = rat primary hepatocytes, 20 microM
[10] = rat primary hepatocytes, 100 microM
[11] = rat primary hepatocytes, 250 microM
[12] = rat primary hepatocytes, 40 microM
[13] = rat primary hepatocytes, 2 microM

CC(C)Cc1ccc(C(C)C(=O)O)cc1 (stereo not shown) [Ibuprofen]
Zone 3 Necrosis Pathology [1, 7]: Absent

ClC(Cl)(Cl)Cl [CCl4, carbon tetrachloride]
zonal necrosis of the liver produced [2]: produce mainly zone 3 necrosis

Brc1ccccc1 [Bromobenzene]
Zone 3 Necrosis in vivo: Pathology Present ([3]; male): 12, 48 h | Zone 3 Necrosis Pathology ([1]; rat primary hepatocytes, 3000 microM): Present

CC(=O)Oc1ccccc1C(=O)O [Aspirin]
Zone 3 Necrosis Pathology ([1]; rat primary hepatocytes, 55.5 microM): Absent

Oc1c(Cl)c(Cl)c(Cl)c(Cl)c1Cl [Pentachlorophenol]
Zone 3 Necrosis Pathology ([1]; rat primary hepatocytes, 19 microM): Absent

CCC1(C)CC(=O)NC1=O (stereo not shown) [Ethosuximide]
Zone 3 Necrosis Pathology [1, 8]: Absent

Cc1cc(N=Nc2ccccc2)ccc1N(C)C [3-methyl-4-(dimethylamino)azobenzene]
Zone 3 Necrosis Pathology ([1]; rat primary hepatocytes, 1.6 microM): Absent

CCC(=O)O[C@H]1[C@H](O[C@@H]2[C@@H](C)[C@H](O[C@H]3C[C@@](C)(OC)[C@@H](O)[C@H](C)O3)[C@@H](C)C(=O)O[C@H](CC)[C@@](C)(O)[C@H](O)[C@@H](C)C(=O)[C@H](C)C[C@@]2(C)O)O[C@H](C)C[C@@H]1N(C)C.CCCCCCCCCCCCOS(=O)(=O)O [Erythromycin Estolate (EE), Erythromycin Estolate]
Zone 3 Necrosis Pathology [1, 9]: Absent

Clc1ccc(Cl)cc1 [1,4-dichlorobenzene]
Zone 3 Necrosis Pathology [1, 10]: Absent

CCSCC[C@H](N)C(=O)O [Ethionine]
Zone 3 Necrosis Pathology [1, 8]: Present

c1ccncc1 [Pyridine]
Zone 3 Necrosis in vivo: Pathology Present ([3]; male): 14 d | Zone 3 Necrosis Pathology [1]: Present

Clc1cccc(Cl)c1N=C1NCCN1 [Clonidine]
Zone 3 Necrosis Pathology [1]: Absent

CCCCN(CCCC)N=O [N-nitrosodibutylamine]
Zone 3 Necrosis Pathology ([1]; rat primary hepatocytes, 200 microM): Absent

COc1cc2nc(N3CCN(C(=O)c4ccco4)CC3)nc(N)c2cc1OC [Prazosin]
Zone 3 Necrosis Pathology [1]: Absent

ClC1(Cl)C2(Cl)C3(Cl)C4(Cl)C(Cl)(Cl)C5(Cl)C3(Cl)C1(Cl)C5(Cl)C24Cl (stereo not shown) [Mirex]
Zone 3 Necrosis Pathology [1, 7]: Absent

O=NN1CCOCC1 [N-nitrosomorpholine]
Zone 3 Necrosis Pathology ([1]; rat primary hepatocytes, 3750 microM): Present

CCC1(c2ccccc2)NC(=O)N(C)C1=O (stereo not shown) [Mephenytoin]
Zone 3 Necrosis Pathology ([1]; rat primary hepatocytes, 14.2 microM): Absent

CCOC(=O)C(C)(C)Oc1ccc(Cl)cc1 [Clofibrate]
Zone 3 Necrosis Pathology [1, 10]: Absent | hypertrophy in vivo [4]: produced hypertrophy in vivo

[Mo] [Molybdenum]
Zone 3 Necrosis in vivo: Pathology Present ([5]; High 500 mg/kg/d): 3 d | Zone 3 Necrosis Pathology [1, 7]: Present

OC(Cn1cncn1)(Cn1cncn1)c1ccc(F)cc1F [Fluconazole]
Zone 3 Necrosis Pathology [1]: Absent

O=c1ccc2ccccc2o1 [Coumarin]
Zone 3 Necrosis in vivo: Pathology Present ([5]; High 150 mg/kg/d): 3 d | Zone 3 Necrosis Pathology [1, 11]: Present

ClC1=C(Cl)C2(Cl)C3C(Cl)C(Cl)CC3C1(Cl)C2(Cl)Cl (stereo not shown) [Chlordane]
Zone 3 Necrosis Pathology ([1]; rat primary hepatocytes, 8 microM): Absent

CO/N=C(\C(=O)N[C@@H]1C(=O)N2C(C(=O)O)=C(COC(N)=O)CS[C@H]12)c1ccco1 [Cefuroxime]
Zone 3 Necrosis Pathology ([1]; rat primary hepatocytes, 224 microM): Absent

[N-]=[N+]=CC(=O)OC[C@H](N)C(=O)O [Azaserine]
Zone 3 Necrosis in vivo: Pathology Present ([5]; High 100 mg/kg (ip)): 1,3 d | Zone 3 Necrosis Pathology ([1]; rat primary hepatocytes, 500 microM): Present

CO[C@H]1/C=C/O[C@@]2(C)Oc3c(C)c(O)c4c(O)c(c(/C=N/N5CCN(C)CC5)c(O)c4c3C2=O)NC(=O)/C(C)=C\C=C\[C@H](C)[C@H](O)[C@@H](C)[C@@H](O)[C@@H](C)[C@H](OC(C)=O)[C@@H]1C [Rifampicin]
Zone 3 Necrosis Pathology [1]: Absent

CC(=N)S [Thioacetamide]
Zone 3 Necrosis Pathology ([1]; rat primary hepatocytes, 2000 microM): Present

NC(=S)c1ccccc1 [Thiobenzamide]
Zone 3 Necrosis Pathology [1, 12]: Present

C[C@@H]1C[C@H]2[C@@H]3CCC4=CC(=O)C=C[C@]4(C)[C@@]3(F)[C@@H](O)C[C@]2(C)[C@@]1(O)C(=O)CO [Dexamethasone]
Zone 3 Necrosis Pathology [1]: Absent

CCN(CC)N=O [Diethylnitrosamine]
Zone 3 Necrosis in vivo: Pathology Present [3]: 1, 3, 7 d | Zone 3 Necrosis Pathology ([1]; rat primary hepatocytes, 300 microM): Present | hepatocellular carcinoma [6]: show evidence of producing hepatocellular carcinoma in rats

[Ce+3].[Cl-].[Cl-].[Cl-] [Cerium (III) Chloride]
Zone 3 Necrosis Pathology [1, 9]: Present

CC(=O)[C@H]1CC[C@H]2[C@@H]3CC=C4C[C@@H](O)CC[C@]4(C)[C@H]3CC[C@]12C [Pregnenolone]
Zone 3 Necrosis Pathology ([1]; rat primary hepatocytes, 38 microM): Absent

CC(=O)Nc1ccc(O)cc1 [Acetaminophen]
zonal necrosis of the liver produced [2]: produce mainly zone 3 necrosis

c1cc[n+]2c(c1)-c1cccc[n+]1CC2 [Diquat]
Zone 3 Necrosis in vivo: Pathology Absent ([3]; male): 6, 12, 24, 48 h

C[C@H]1C(=O)O[C@@H]2CCN3CC=C(COC(=O)[C@](C)(O)[C@]1(C)O)[C@H]23 [Monocrotaline]
Zone 3 Necrosis Pathology [1, 10]: Present

CC(C)N(CCC(C(N)=O)(c1ccccc1)c1ccccn1)C(C)C (stereo not shown) [Disopyramide]
Zone 3 Necrosis Pathology ([1]; rat primary hepatocytes, 3 microM): Absent

CCO [Ethanol]
Zone 3 Necrosis Pathology [1]: Absent

O=NN(CCO)CCO [Nitrosodiethanolamine]
Zone 3 Necrosis Pathology [1, 8]: Absent

O=NN1CCCCC1 [N-Nitrosopiperidine]
Zone 3 Necrosis Pathology ([1]; rat primary hepatocytes, 3200 microM): Present

CN(C)N=O [Dimethylnitrosamine]
Zone 3 Necrosis in vivo: Pathology Present [3]: 7, 14 d | Zone 3 Necrosis Pathology [1, 8]: Present

COc1cccc2c1C(=O)c1c(O)c3c(c(O)c1C2=O)C[C@@](O)(C(=O)CO)C[C@@H]3O[C@H]1C[C@H](N)[C@H](O)[C@H](C)O1 [Doxorubicin]
Zone 3 Necrosis Pathology [1]: Absent

OC(c1ccc(Cl)cc1)(c1cncnc1)c1ccccc1Cl (stereo not shown) [Fenarimol]
Zone 3 Necrosis Pathology [1, 9]: Absent

CC(=O)N1CCN(c2ccc(OCC3COC(Cn4ccnc4)(c4ccc(Cl)cc4Cl)O3)cc2)CC1 (stereo not shown) [Ketoconazole]
Zone 3 Necrosis in vivo: Pathology Absent ([5]; male, liver, oral, 10 mg/kg/d): 1, 3 d | Zone 3 Necrosis Pathology [1, 13]: Absent

Brc1cccc(Br)c1 [1,3-Dibromobenzene]
Zone 3 Necrosis in vivo: Pathology Present ([3]; male): 1 d | Zone 3 Necrosis Pathology [1, 11]: Present

CCCC[C@@H](C)[C@@H](OC(=O)C[C@@H](CC(=O)O)C(=O)O)[C@H](C[C@@H](C)C[C@H](O)CCCC[C@@H](O)C[C@H](O)[C@H](C)N)OC(=O)C[C@@H](CC(=O)O)C(=O)O [Fumonisin B(1)]
hepatocellular carcinoma [6]: show evidence of producing hepatocellular carcinoma in rats

CC[N+](C)(C)Cc1ccccc1Br [Bretylium]
Zone 3 Necrosis Pathology [1]: Absent

CN(C)C=O [Dimethylformamide]
Zone 3 Necrosis in vivo: Pathology Present ([3]; male): 48 h | Zone 3 Necrosis Pathology ([1]; rat primary hepatocytes, 5000 microM): Present

NCC1(CC(=O)O)CCCCC1 [Gabapentin]
Zone 3 Necrosis Pathology [1, 13]: Absent

Cc1ccc2cc3c(ccc4ccccc43)c3c2c1CC3 [3-methylcholanthrene]
Zone 3 Necrosis Pathology [1, 12]: Absent

Nc1cc(N2CCCCC2)nc(N)[n+]1[O-] [Minoxidil]
Zone 3 Necrosis Pathology ([1]; rat primary hepatocytes, 0.166 microM): Absent
